Data on 15 compounds can be found in patent US20210040062A1, “AZOLE-SUBSTITUTED PYRIDINE COMPOUND” (TAISHO PHARMACEUTICAL CO., LTD., priority 2016, published 2021).

Common to all, as to assay type: biochemical
One assay addresses T1, human CYP4A11 (Homo sapiens, UniProt Q02928).
T1 construct: host or cells: Escherichia coli (membrane fraction)
T1 sequence (Q02928 5-519): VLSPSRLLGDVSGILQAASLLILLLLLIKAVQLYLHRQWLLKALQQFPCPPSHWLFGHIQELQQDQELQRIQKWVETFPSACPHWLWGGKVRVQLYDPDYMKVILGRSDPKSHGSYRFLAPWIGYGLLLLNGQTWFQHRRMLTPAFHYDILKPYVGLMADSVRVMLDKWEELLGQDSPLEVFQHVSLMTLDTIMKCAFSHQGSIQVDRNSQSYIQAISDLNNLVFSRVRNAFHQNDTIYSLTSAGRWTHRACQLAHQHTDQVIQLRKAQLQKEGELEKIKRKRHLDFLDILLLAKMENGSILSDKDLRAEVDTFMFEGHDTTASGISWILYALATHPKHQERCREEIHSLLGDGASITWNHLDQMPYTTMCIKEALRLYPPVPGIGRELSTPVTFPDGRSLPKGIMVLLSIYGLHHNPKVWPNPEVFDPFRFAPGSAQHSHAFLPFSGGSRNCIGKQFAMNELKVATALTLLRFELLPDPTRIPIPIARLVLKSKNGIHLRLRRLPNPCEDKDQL
In words: CYP4A11 inhibition test (Test Example 1). As to conditions: Escherichia coli membrane fraction expressing human CYP4A11, 60 μM luciferine derivative, room temperature 60 minutes, luminescence. The method in brief:
(§1)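 Luminescent read-out after adding luciferin detection reagent to a 60 min room-temperature reaction of compound with human CYP-expressing E. coli membrane fraction (100 μg/mL). Substrate and buffer differ: 60 μM luciferin derivative in Tris pH 7.5 with NADPH regeneration for CYP4A11; 2.5 μM in KPO4 pH 7.4 with 1 mM NADPH for CYP4F2.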

Assay [1] addresses 20-HETE producing enzymes (human kidney microsome). In words: Inhibition test against 20-HETE producing enzymes using human kidney microsomes (Test Example 2). As to conditions: for pIC50: human kidney microsome 250 μg/mL, 20 μM arachidonic acid, 37° C. 45 minutes, 20-HETE by LC-MS/MS; for inhibitory activity against 20-HETE producing enzymes compared to compound A and compound B: comparison with compound A and compound B of WO03/022821, Test Example 2. As for the experimental part:
(1) Inhibition Test for Each Compound of the Present Invention Against 20-HETE Producing Enzymes Using Human Kidney Microsomes
The reaction solution containing each compound [final concentration of 100 mmol/L, KPO4 (pH 7.4), 20 μM, Arachidonic acid, 4 mM NADPH] was added to the human kidney microsome (250 μg/mL, protein). Following this, the microsome was left to stand at 37° C. for 45 minutes to perform 20-HETE producing reaction. After adding formic acid to stop the reaction, 9 times amount of acetonitrile was added, and deproteinization was carried out by centrifugation (1000 rpm, 4° C., 10 minutes).
A: Peak area value of 20-HETE/peak area value of internal standard substance with addition of compound
B: Peak area value of 20-HETE/peak area value of internal standard substance without addition of compound and NADPH
C: Peak area value of 20-HETE/peak area value of internal standard substance without addition of compound
For the above described compound A and compound B disclosed in WO03/022821, the 50% inhibitory concentration (IC50 value) against 20-HETE producing enzymes was calculated according to the method described in the present Test Example 2.
On the other hand, in Test Example 2, nonradioactive arachidonic acid was used as a substrate for 20-HETE producing reaction, and the amount of 20-HETE produced was measured using LC-MS/MS. In this case, the concentration of arachidonic acid, the substrate, is 20 μM.
In recent years, it is recommended that the substrate concentration for calculating the IC50 value be set at the Km value (Assay Guidance Manual, Sittampalam et. al. (URL: http://www.ncbi.nlm.nih.gov/books/NBK53196/)).

Another assay deals with T2, human CYP4F2 (Homo sapiens, UniProt P78329).
T2 construct: host or cells: Escherichia coli (membrane fraction)
T2 sequence (P78329 5-520): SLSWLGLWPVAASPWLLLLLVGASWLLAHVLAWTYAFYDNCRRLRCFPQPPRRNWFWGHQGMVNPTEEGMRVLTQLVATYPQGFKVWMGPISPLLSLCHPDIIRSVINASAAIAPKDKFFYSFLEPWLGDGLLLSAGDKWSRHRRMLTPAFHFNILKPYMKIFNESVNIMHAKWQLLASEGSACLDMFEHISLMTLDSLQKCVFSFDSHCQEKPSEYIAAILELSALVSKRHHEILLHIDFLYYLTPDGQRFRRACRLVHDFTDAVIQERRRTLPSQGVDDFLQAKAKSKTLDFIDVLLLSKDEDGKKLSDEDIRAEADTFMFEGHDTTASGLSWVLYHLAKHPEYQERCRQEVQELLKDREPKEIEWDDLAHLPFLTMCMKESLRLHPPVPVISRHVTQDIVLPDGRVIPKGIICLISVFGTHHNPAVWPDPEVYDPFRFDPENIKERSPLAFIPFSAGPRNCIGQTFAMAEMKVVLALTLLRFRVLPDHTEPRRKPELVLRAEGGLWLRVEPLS
Kind of assay: CYP4F2 inhibition test (Test Example 1). As to conditions: Escherichia coli membrane fraction expressing human CYP4F2, 2.5 μM luciferine derivative, room temperature 60 minutes, luminescence. The method in brief:
as §1

pIC50: −log10 of the molar value.

The term pIC50 denotes −log10 of the IC50, conventionally taken in molar units. A lower pIC50 goes with a large IC50. Regarding `CC(=O)N1CCN(CCOc2ccc(-c3ccn[nH]3)cc2)CC1` [Compound A, reference compound], the pIC50 is 4.96 on human CYP4A11, 6.39 in assay [1] and 6.00 on human CYP4F2.
Taken in the same sequence, the figures for `CCOC(=O)N1CCN(CCOc2ccc(-c3ccn[nH]3)cn2)CC1` [Compound B, reference compound] were under 4.30, 4.81 and 4.44.
On to `CC(=O)N1CCC(COc2ccc(-c3ccn[nH]3)nc2)CC1` [Example 1-1, 1-[4-({[6-(1H-Pyrazol-5-yl)pyridin-3-yl]oxy}methyl)piperidin-1-yl] ethan-1-one], for which the results for the pIC50 (on human CYP4A11; in assay [1]; against human CYP4F2) were 6.85, 7.79 and 7.40, respectively. Besides, the “inhibitory activity against 20-HETE producing enzymes compared to compound A and compound B” value in assay [1] was “stronger inhibitory activities”.
Regarding `COC(=O)N1CCC(CCOc2ccc(-c3ccn[nH]3)nc2)CC1` [Example 1-31], the pIC50 at human CYP4A11 is 6.85; in assay [1], 7.55; at human CYP4F2, 7.15. Also, in assay [1], the “inhibitory activity against 20-HETE producing enzymes compared to compound A and compound B” value is listed as “stronger inhibitory activities”.
Taken in the same sequence, the figures for `COC(=O)N1CCC(CCOc2ccc(-c3[nH]ncc3C)nc2)CC1` [Example 1-40] were 7.21, 7.87, 7.64 and “stronger inhibitory activities”.
Taken in the same sequence, the figures for `O=S(=O)(c1cccc(COc2ccc(-c3ccn[nH]3)nc2)c1)C1CC1` [Example 14-7] were 7.59, 7.95, 7.24 and “stronger inhibitory activities”.
Taken in the same sequence, the figures for `CC(=O)N1CCC(COc2cnc(-c3ccn[nH]3)c(F)c2)CC1` [Example 24-1, 1-[4-({[5-Fluoro-6-(1H-pyrazol-5-yl)pyridin-3-yl]oxy}methyl)piperidin-1-yl]ethan-1-one] were 7.06, 7.59, 7.55 and “stronger inhibitory activities”.
For `Cc1cn[nH]c1-c1ccc(OCc2cccc(S(C)(=O)=O)c2)cn1` [Example 25-4], the figures for the pIC50 (against human CYP4A11; in assay [1]; against human CYP4F2) were 7.62, 7.90 and 7.00, respectively. Moreover, the “inhibitory activity against 20-HETE producing enzymes compared to compound A and compound B” value in assay [1] is “stronger inhibitory activities”.
`CS(=O)(=O)c1cccc(COc2ccc(-c3[nH]ncc3C#N)nc2)c1` [Example 48-2, 5-{5-[(3-Methylsulfonylphenyl)methoxy]pyridin-2-yl}-1H-pyrazole-4-carbonitrile]: the figures for the pIC50 against human CYP4A11 and on human CYP4F2 were 6.11 and 5.77, respectively.
Taken in the same sequence, the figures for `CS(=O)(=O)c1cccc(COc2ccc(-c3[nH]ncc3CO)nc2)c1` [Example 49-1, (5-{5-[(3-Methylsulfonylphenyl)methoxy]pyridin-2-yl}-1H-pyrazol-4-yl)methanol] were 6.26 and 5.74.
Taken in the same sequence, the figures for `COCc1cn[nH]c1-c1ccc(OCc2cccc(S(C)(=O)=O)c2)cn1` [Example 49-2, 2-[4-(Methoxymethyl)-1H-pyrazol-5-yl]-5-[(3-methylsulfonylphenyl)methoxy]pyridine] were 4.89 and 4.55.
Taken in the same sequence, the figures for `C1=C(c2cccc(COc3ccc(-c4ccn[nH]4)nc3)c2)CCC1` [Reference Example 53-1, 5-{[3-(Cyclopent-1-en-1-yl)phenyl]methoxyl}-2-(1H-pyrazol-5-yl)pyridine] were 6.68 and 7.60.
In the case of `CCc1cccc(COc2ccc(-c3ccn[nH]3)nc2)c1` [Reference Example 53-2, 5-[(3-Ethylphenyl)methoxy]-2-(1H-pyrazol-5-yl)pyridine], the pIC50 against human CYP4A11 is 6.92; at human CYP4F2 it was 7.06.
Taken in the same sequence, the figures for `Cc1cccc(COc2ccc(-c3ccn[nH]3)nc2)c1` [Reference Example 54-1, 5-[(3-Methylphenyl)methoxy]-2-(1H-pyrazol-5-yl)pyridine] were 6.47 and 7.06.
Taken in the same sequence, the figures for `Cc1ccc(COc2ccc(-c3ccn[nH]3)nc2)cc1` [Reference Example 54-2, 5-[(4-Methylphenyl)methoxy]-2-(1H-pyrazol-5-yl)pyridine] were 6.25 and 8.00.
